This note sets out measurements from patent US20200368315A1, “ANTIMICROBIAL PEPTIDES AND ADMIXTURES THEREOF SHOWING ANTIMICROBIAL ACTIVITY AGAINST GRAM-NEGATIVE PATHOGENS” (priority 2017, published 2020).

pIC50: −log10 of the molar value. In brackets after ≈: the same amount, converted by molar mass. Where two headings read alike, the source gives them in different places.

One data set deals with P. aeruginosa LMG 6395. It counts as cell-based, Pseudomonas aeruginosa. The following applies: nisin + GNP. The text has this: (§1) The test of synergistic effect was processed by conducting standard chequerboard broth microdilution assays. Nisin (Drug X) was loaded two fold serially diluted from row 1 to 10 in X-axis while GNPs (Drug Y) were loaded in eight two fold serially diluted concentrations from line A to H in Y-axis (FIG. 1). The original concentrations of peptides were MICs of each. Row 11 are used as growth control with no peptide was included, while row 12 with MHB medium-only wells was included as a sterility control as referred before. 50 uL fresh bacterial suspension was added to well 1-11 and final volume of each well on the plate is 100 uL.
(§2) To determine whether the combination therapy is additive, synergistic or antagonistic, fractional inhibitory concentration (FIC) indices were calculated. FICI=FICa+FICb=MICac/MICa+MICbc/MICb. The MICa/MICb is the MIC of compound A/B alone. MICac is the MIC of compound A in combination with compound B and MICbc is the MIC of compound B when it was combination with compound A. […]. FICa is FIC of compound A while FICb is FIC of compound B. The FICI is interpreted as follows: synergistic, FICI≤0.5; additive, 0.5<FICI<1; indifferent, 1<FICI<2; antagonistic, FICI>2.

Another data set concerns A. baumannii LMG01041. It counts as cell-based, Acinetobacter baumannii. The following applies: nisin + GNP.
Description: as §1, §2

Another data set has as its system HEK293 cells. The data set is described as follows: Cell viability (ATP levels, CellTiter-Glo). The following applies: HEK293 cells. Here is the method:
ATP levels were measured by adding 50 μL of CellTiter-Glo reagent to each well and after 5 minutes of incubation luminescence was measured with SpectraMax i3.
96-well plates were seeded with HEK293 cells at concentration of 30,000 cells per well in 100 μL of DMEM growth media supplemented with 1% NEAA and 10% FBS. Border wells were filled with 100 μL of sterile PBS. The next day compounds were added to cells. Compounds were first 2× diluted in 96-well V-bottom plate in PBS. After that compounds were mixed with media in 96-deep-well plate for final concentrations. Growth media from 3 plates was aspirated and replaced with 100 μL of prepared compounds. Compounds were tested in duplicate. ATP levels were measured by adding 50 μL of CellTiter-Glo reagent to each well and after 5 minutes of incubation luminescence was measured with SpectraMax i3. […] The potential effects were then calculated and presented as IC50 values (μg/mL).
(In general: Cellular ATP, detected with luciferase, serves as a proxy for viable cell number.)

For another data set, the system named is K. pneumoniae LMG20218. It counts as cell-based, Klebsiella pneumoniae. The following applies: nisin + GNP.
Description: as §1, §2

A further data set concerns E. coli LMG15862. Put plainly: microbe, parasite or virus in culture. The following applies: for MIC: Escherichia coli. It counts as cell-based, Escherichia coli. Summed up: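 Broth microdilution in Mueller Hinton Broth, run in duplicate, with 2-fold serial compound dilutions and a final inoculum of 5*10^5 CFU/mL. Strains were precultured in LB at 37° C. MIC is the lowest concentration inhibiting visible growth.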

In data set [1] the test system is human red blood cells (HRBc). The data set is described as follows: Hemolytic test. Here is the method: Fresh human red blood cells (HRBc) were used for the hemolytic tests. After incubation with different concentrations of test compounds at 37° C. for 1 hour, the absorbance of the supernatant were measured.
For data set [2], the system named is L. lactis MG1363. The following applies: L. lactis MG1363.
The test system of data set [3] is Pseudomonas aeruginosa ATCC 27853. Put plainly: microbe, parasite or virus in culture. It counts as cell-based. The following applies: Pseudomonas aeruginosa, ATCC27853. Here is the method: (§3) Testing was performed according to CLSI (Clinical Laboratory Standards Institute) guidelines. Read out of the study was determination of MIC—minimal inhibitory concentration expressed in μg/mL.
(§4) Out of these PBS solutions, 76.8 μL was transferred to 1423.2 μL of MH media in deep well for testing compound alone. […] Out of these working solutions 100 μL were transferred to wells in the third column of 96-well assay plates. Assay plates were previously filled with 50 μL of MH media in all wells except for the wells in the third column.
(§5) Microorganisms used were all revived from skim milk storage at −70° C. by plating them on MH agar plates. The following day a single colony of each microorganism was again streaked on fresh agar plates. The next day, using direct colony suspension method, broth solutions that achieve turbidity equivalent to 0.5 McFarland standard for each microorganism were prepared. […] Out of these suspensions, actual inoculums were prepared by diluting them 100× with MH media giving final microorganism count of 2-8×10^5 CFU/mL. For each strain of microorganisms, 20 mL of these inoculum solutions were prepared. From the second to the twelfth column of 96-well plates, 50 μL of these solutions were transferred per well. To the first column, 50 μL per well of pure growth media was added. In this manner the first column was used as sterility control of media used, the second column was used as control of microorganism's growth and the rest of the plate was used for MIC determination. All plates were incubated for 16-24 h at 37° C.
(§6) MIC value was determined by visual inspection of bacterial growth within 96-well plates. The first column in which there was no visible growth of bacteria was determined as MIC value for peptide or combination tested in that particular row.

In data set [4] the test system is Klebsiella pneumoniae ATCC 700603. Put plainly: microbe, parasite or virus in culture. It counts as cell-based. The following applies: Klebsiella pneumoniae, ATCC700603. Here is the method:
as §3, §4, §5, §6

For data set [5], the system named is Escherichia coli ATCC 25922. The data set is described as follows: microbe, parasite or virus in culture. It counts as cell-based. The following applies: Escherichia coli, ATCC25922. Here is the method:
as §3, §4, §5, §6

The subject of data set [6] is Acinetobacter baumannii ATCC 17978. Put plainly: microbe, parasite or virus in culture. It counts as cell-based. The following applies: Acinetobacter baumannii, ATCC17978. Here is the method: as §3, §4, §5, §6
Data set [7] has as its system L. lactis MG1363. The data set is described as follows: microbe, parasite or virus in culture. The following applies: Lactococcus lactis, MG1363, read-out: MIC value of antimicrobial compounds alone.

For orientation: pIC50 means the IC50 on a negative log10 scale, so that one unit is a factor of ten. What is called HC50 is the concentration giving 50% haemolysis. Regarding `CC[C@@H](C)[C@@H](NC(=O)[C@@H](CCCNC(=N)N)NC(=O)[C@@H](CCCNC(=N)N)NC(=O)[C@@H](Cc1ccccc1)NC(=O)[C@@H](CC(C)C)NC(=O)[C@@H](CCCNC(=N)N)NC(=O)[C@H](N)CCCNC(=N)N)C(=O)N[C@H](CC(C)C)C(=O)N[C@H](CCCNC(=N)N)C(=O)N[C@H](Cc1c[nH]c2ccccc12)C(=O)N[C@H](CC(C)C)C(N)=O` [GNP-D6], the FICI with P. aeruginosa LMG 6395 came out at 0.25; in the data set on A. baumannii LMG01041, 0.313; in the data set on K. pneumoniae LMG20218 it was 0.375. The pIC50 in the data set on HEK293 cells (read-out: IC50 (cell viability, ATP levels)) is 4.48. The MIC value in the data set on E. coli LMG15862 (alone, E. coli LMG15862) came out at 2 µM (≈ 3.17 µg/mL). In data set [1] (HRBc, 37° C., 1 hour), this molecule showed an HC50 of 168.9 µM. Also, the “HC50 relative to the working concentration” value in data set [1] (working concentration 2 μM) is reported as 80 fold. Also, in the data set with L. lactis MG1363 [2], the “MIC value of antimicrobial compounds alone” value came out at 2 µM.

Consider `CN[C@H](CC(C)C)C(=O)N[C@H]1C(=O)N[C@@H](CC(N)=O)C(=O)N[C@H]2C(=O)N[C@H]3C(=O)N[C@H](C(=O)N[C@H](C(=O)O)c4cc(O)cc(O)c4-c4cc3ccc4O)[C@H](O)c3ccc(c(Cl)c3)Oc3cc2cc(c3O[C@@H]2O[C@H](CO)[C@@H](O)[C@H](O)[C@H]2O[C@H]2C[C@](C)(N)[C@H](O)[C@H](C)O2)Oc2ccc(cc2Cl)[C@H]1O` [Vancomycin, reference compound], for which the “Effect on ATP levels” value in the data set on HEK293 cells (at concentrations tested) is reported as “do not affect the ATP levels”. The MIC in data set [3] is over 128 µg/mL; in data set [4], over 128 µg/mL; in data set [5] it was over 128 µg/mL; in data set [6] it was 128 µg/mL; with E. coli LMG15862 (LMG15862, read-out: MIC value), 64 µM (≈ 92.8 µg/mL); with E. coli LMG15862 (LMG15862, read-out: MIC value of antimicrobial compounds alone) it was 64 µM (≈ 92.8 µg/mL). Further, in the data set on L. lactis MG1363 [7], the MIC worked out at 0.125 µM (≈ 0.181 µg/mL). Moreover, the “Hemolysis in the HRBc” value in data set [1] (even at 500 μM) is reported as “did not induce hemolysis”. For the same molecule, the “HC50 (hemolytic activity)” value in data set [1] (human red blood cells, 37° C., 1 hour) was over 500 µM.
